Values of other authors in PMC5758054 (Journal of natural products, 2017).

System: murine colorectal cancer lung metasteses
Settings: ref [36],[37]

For N#C[C@@H]1CCCN1C(=O)CNC12CC3CC(CC(O)(C3)C1)C2 [Vildagliptin], which “in vivo tumor suppressor activity (in words)” value is on record?
The value was “has in vivo tumor suppressor activity”.
